{
  "source": "patent US10668040B2",
  "about": "“Treatment of urea cycle disorders in neonates and infants” (Horizon Therapeutics, LLC, priority 2017, dated 2020)",
  "format_in_all_cases": "in vivo, human",
  "key": {"[1]": {"tested_on": "pediatric patients with UCDs", "assay": "HPN-100-012 switch-over study: 24-hour blood ammonia on HPN-100 vs NaPBA", "source_text": "HPN-100-012 was an open-label, fixed sequence, switch-over study of the safety, PK and efficacy of HPN-100 compared to NaPBA in patients with UCDs, with a 12-month safety extension part. […] After review of all the safety data by the DSMB, 8 additional subjects were enrolled in the study after the switch-over phase was completed."}, "[2]": {"tested_on": "pediatric UCD patients", "assay": "Pooled ammonia analyses from short term studies", "experimental": "Pooled ammonia analyses from short term studies were also conducted."}, "[3]": {"assay": "Pharmacokinetics of HPN-100 and NaPBA, study HPN-100-005", "conditions": "HPN-100-005 (N = 11)", "source_text": "(§1) The pharmacokinetics of the short term studies can be summarized as follows. Mean exposure levels of HPN-100 metabolites PBA, PAA, and PAGN after doses of HPN-100 and NaPBA with meals (TID) in pediatric (29 days to 17 years of age) UCD patients in HPN-100-005 and HPN-100-012 studies are summarized below. The mean exposure to PBA, the parent metabolite, and mean exposure to PAGN, the terminal metabolite, show no systematic variation across age groups, while PAA exposure tended to decrease with increasing age, a finding consistent with those from population PK modeling which indicate that the rate of clearance/metabolism of PAA varies directly with body size. While systemic metabolite exposure, assessed as peak plasma concentration (Cmax) or AUC, is generally similar for HPN-100 and NaPBA, the minimum concentration (Cmin-ss) was higher—and/or percent-fluctuation less—for plasma PAGN, a finding consistent with slower gastrointestinal absorption of PBA when administered orally as HPN-100."}, "[4]": {"assay": "Pharmacokinetics of HPN-100 and NaPBA, study HPN-100-012", "conditions": "HPN-100-012 (N = 15)", "source_text": "as §1"}},
  "data": [
    {"smiles": "O=C([O-])CCCc1ccccc1.[Na+]", "note": "[NaPBA, sodium phenylbutyrate]", "values": [
      {"measurement": "Mean blood ammonia", "setting": "[1]; 12-hour time point, HPN-100 Day 10, NaPBA Day 1", "result": 41.03, "unit": "µmol/L"},
      {"measurement": "Mean blood ammonia", "setting": "[1]; 24-hour time point, NaPBA Day 1", "result": 34.66, "unit": "µmol/L"},
      {"measurement": "Mean blood ammonia levels following an overnight fast", "setting": "[1]; pre-dose and 24 hours post dose", "result": "normal"},
      {"measurement": "abnormal ammonia values", "setting": "[2]", "result": 35, "unit": "%"},
      {"measurement": "Plasma PAA % Fluctuation", "setting": "[3]; mean (CV %)", "result": "3931 (85.1) %"},
      {"measurement": "Plasma PAA AUC0-24", "setting": "[3]; mean (CV %)", "result": "773 (73.3) μg · h/mL"},
      {"measurement": "Plasma PAA CLss/F", "setting": "[3]; mean (CV %)", "result": "34391 (162.5) mL/min"},
      {"measurement": "Plasma PAA Cmax-ss", "setting": "[3]; mean (CV %)", "result": "75.1 (64.4) μg/mL"},
      {"measurement": "Plasma PAA Cmin-ss", "setting": "[3]; mean (CV %)", "result": "0.674 (130.5) μg/mL"},
      {"measurement": "Plasma PAGN % Fluctuation", "setting": "[3]; mean (CV %)", "result": "1917 (54.8) %"},
      {"measurement": "Plasma PAGN AUC0-24", "setting": "[3]; mean (CV %)", "result": "1015 (44.7) μg · h/mL"},
      {"measurement": "Plasma PAGN CLss/F", "setting": "[3]; mean (CV %)", "result": "19739 (44.3) mL/min"},
      {"measurement": "Plasma PAGN Cmax-ss", "setting": "[3]; mean (CV %)", "result": "74.8 (37.3) μg/mL"},
      {"measurement": "Plasma PAGN Cmin-ss", "setting": "[3]; mean (CV %)", "result": "4.6 (66.4) μg/mL"},
      {"measurement": "Plasma PBA % Fluctuation", "setting": "[3]; mean (CV %)", "result": "1979 (123.7) %"},
      {"measurement": "Plasma PBA AUC0-24", "setting": "[3]; mean (CV %)", "result": "236 (105.2) μg · h/mL"},
      {"measurement": "Plasma PBA CLss/F", "setting": "[3]; mean (CV %)", "result": "145463 (123.4) mL/min"},
      {"measurement": "Plasma PBA Cmax-ss", "setting": "[3]; mean (CV %)", "result": "37.4 (101.6) μg/mL"},
      {"measurement": "Plasma PBA Cmin-ss", "setting": "[3]; mean (CV %)", "result": "0.37 (171.3) μg/mL"},
      {"measurement": "U-PAGN Ae", "setting": "[3]; mean (CV %)", "result": "12512426 (51.3) μg"},
      {"measurement": "U-PAGN Ae0-12", "setting": "[3]; mean (CV %)", "result": "7098020 (47.5) μg"},
      {"measurement": "U-PAGN Ae12-24", "setting": "[3]; mean (CV %)", "result": "5414406 (71.9) μg"},
      {"measurement": "U-PAGN Fe0-12", "setting": "[3]; mean (CV %)", "result": "39.6 (30.0) %"},
      {"measurement": "U-PAGN Fe12-24", "setting": "[3]; mean (CV %)", "result": "29.3 (52.8) %"},
      {"measurement": "U-PAGN Fe % dose", "setting": "[3]; mean (CV %)", "result": "69.0 (23.9) %"},
      {"measurement": "Plasma PAA Tmax-ss", "setting": "[3]; median", "result": 12.00, "unit": "h"},
      {"measurement": "Plasma PAGN Tmax-ss", "setting": "[3]; median", "result": 12.00, "unit": "h"},
      {"measurement": "Plasma PBA Tmax-ss", "setting": "[3]; median", "result": 12.00, "unit": "h"},
      {"measurement": "Plasma PAA % Fluctuation", "setting": "[4]; mean (CV %)", "result": "1289 (102.8) %"},
      {"measurement": "Plasma PAA AUC0-24", "setting": "[4]; mean (CV %)", "result": "1458 (211.3) μg · h/mL"},
      {"measurement": "Plasma PAA CLss/F", "setting": "[4]; mean (CV %)", "result": "94249 (243.7) mL/min"},
      {"measurement": "Plasma PAA Cmax-ss", "setting": "[4]; mean (CV %)", "result": "98.0 (152.1) μg/mL"},
      {"measurement": "Plasma PAA Cmin-ss", "setting": "[4]; mean (CV %)", "result": "49.2 (287.2) μg/mL"},
      {"measurement": "Plasma PAGN % Fluctuation", "setting": "[4]; mean (CV %)", "result": "1459 (74.1) %"},
      {"measurement": "Plasma PAGN AUC0-24", "setting": "[4]; mean (CV %)", "result": "946 (75.5) μg · h/mL"},
      {"measurement": "Plasma PAGN CLss/F", "setting": "[4]; mean (CV %)", "result": "14360 (93.0) mL/min"},
      {"measurement": "Plasma PAGN Cmax-ss", "setting": "[4]; mean (CV %)", "result": "74.4 (61.3) μg/mL"},
      {"measurement": "Plasma PAGN Cmin-ss", "setting": "[4]; mean (CV %)", "result": "17.7 (159.6) μg/mL"},
      {"measurement": "Plasma PBA % Fluctuation", "setting": "[4]; mean (CV %)", "result": "5102 (75.9) %"},
      {"measurement": "Plasma PBA AUC0-24", "setting": "[4]; mean (CV %)", "result": "483 (146.0) μg · h/mL"},
      {"measurement": "Plasma PBA CLss/F", "setting": "[4]; mean (CV %)", "result": "112093 (136.4) mL/min"},
      {"measurement": "Plasma PBA Cmax-ss", "setting": "[4]; mean (CV %)", "result": "60.4 (128.3) μg/mL"},
      {"measurement": "Plasma PBA Cmin-ss", "setting": "[4]; mean (CV %)", "result": "0.993 (227.3) μg/mL"},
      {"measurement": "Plasma PAA Tmax-ss", "setting": "[4]; median", "result": 8.00, "unit": "h"},
      {"measurement": "Plasma PAGN Tmax-ss", "setting": "[4]; median", "result": 8.00, "unit": "h"},
      {"measurement": "Plasma PBA Tmax-ss", "setting": "[4]; median", "result": 8.30, "unit": "h"}
    ]}
  ]
}
